The source of these data is US9956426B2, “Upconverting nanoparticles” (priority 2015, dated 2018).

The test system of the assay is singlet oxygen production in HeLa cells. In words: Singlet oxygen detection by DCFDA fluorescence (imaging and plate reader). Type of assay: cell-based. Particulars: 100 μg/mL, CW 980 nm 1 W/cm^2, 0, 5, 10 min irradiation. An excerpt:
To investigate the mechanism of the results from the above mentioned experiments, cells were stained with 2′,7′-dichlorofluorescein diacetate (DCFDA), a fluorescent indicator for singlet oxygen generation, and imaged using fluorescence microscopy. When DCFDA diffuses into the cell it is […] into a non-fluorescent compound by cellular esterases. Reactive oxygen species (ROS) oxidize the non-fluorescent compound to 2′, 7′-dichlorofluorescein (DCF), which has bright green fluorescence. […] See images (a), (b) and (c) of FIG. 10. […] See images (d), (e) and (f) of FIG. 10. The data were corroborated by quantifying the singlet oxygen production by measuring the fluorescence intensity of the DCFDA using 96-well microtiter plate reader. Both DCFDA fluorescence imaging and microtiter plate measurement indicate effective prodrug delivery and subsequent PpIX activation by the red-emitting upconverting nanoparticles provided by the present disclosure.
Glass-bottom confocal dishes seeded with 1×10^6 HeLa cells were incubated overnight at 37° C. with 5% CO2. […]
FIGS. 10(a), 10(b), 10(c), 10(d), 10(e) and 10(f). Fluorescence microscopy images showing detection of singlet oxygen production in cells by the fluorescence of DCFDA.

Take “α-NaYF4:Yb(80%),Er(2%)@CaF2 ALA [ALA-UCNPs]”: the “DCFDA fluorescence (singlet oxygen generation)” value was “intensifying DCFDA fluorescence over irradiation time”.
